Data from PMC8899470 (Frontiers in Pharmacology, 2022).
“And” between values parts separate entries of the source, which are not always exact repeats. Equal values may be shown once.

Key:
PLpro of SARS-CoV = conditions: ref Cho et al., 2013; cited from earlier work
PLpro of MERS-CoV = conditions: ref Cho et al., 2013; cited from earlier work
Vero E6 cells = conditions: cited from earlier work
SARS-CoV = conditions: Vero E6 cells; ref Lin et al., 2018; cited from earlier work
SARS CoV-2 PLpro = SARS CoV-2 PLpro (Severe acute respiratory syndrome coronavirus 2, UniProt P0DTD1); assay: biochemical; format: biochemical; conditions: for IC50: IC50, PLpro 0.3 µM, LKGGAMC substrate 40 µM, Tris-HCl pH 7.3, triplicate

CCN(CC)C(=S)SSC(=S)N(CC)CC [Disulfiram]
Inhibitory effect on PLpro (mode) (PLpro of SARS-CoV): competitive inhibitory effect | Inhibitory effect on PLpro (mode) (PLpro of MERS-CoV): competitive inhibitory effect

Cc1ccc(N)cc1C(=O)N[C@H](C)c1cccc2ccccc12 [GRL0617]
Cytotoxicity (Vero E6 cells): no cytotoxicity | Inhibition of SARS-CoV replication (SARS-CoV): inhibit the replication process

Cc1ccc(NC2CCNCC2)cc1C(=O)N[C@H](C)c1cccc2[nH]c3ccccc3c12 [hit 1]
IC50 (SARS CoV-2 PLpro): 2400 ± 600 nM

CCOC(=O)c1ccc(-c2cccc([C@@H](C)NC(=O)c3cc(NC4CNC4)ccc3C)c2)s1 [hit 2]
IC50 (SARS CoV-2 PLpro): < 1000 nM and 600 nM | Inhibitory activity relative to positive control GRL0617 (SARS CoV-2 PLpro; ratio of IC50 values against PLpro): about 4 times

Cc1ccc(NC2COC2)cc1C(=O)N[C@H](C)c1csc2ccccc12 [hit 3]
IC50 (SARS CoV-2 PLpro): 2100 ± 500 nM

Cc1ccc(NC2CCN(C(F)(F)F)CC2)cc1C(=O)N[C@H](C)c1cccc2ccccc12 [hit 4]
IC50 (SARS CoV-2 PLpro): < 1000 nM and 800 nM
